Results published in PMC11724923 (Nature Communications, 2025).

What was measured:
PRDX1 [1] = target: T1, PRDX1 (Homo sapiens, UniProt Q06830); assay: SPR with sodium palmitate; assay type: binding
T1 sequence (Q06830 1-199): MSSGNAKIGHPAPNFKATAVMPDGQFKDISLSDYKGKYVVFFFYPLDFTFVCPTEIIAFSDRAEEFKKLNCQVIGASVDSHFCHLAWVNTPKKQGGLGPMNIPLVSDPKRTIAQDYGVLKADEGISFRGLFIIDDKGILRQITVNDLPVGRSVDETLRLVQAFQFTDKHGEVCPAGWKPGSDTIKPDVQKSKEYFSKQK

PRDX1 [2] = target: T1, PRDX1; assay: SPR; assay type: binding
crystal structure = target: the molecule itself; assay: crystal structure

`CCCCCCCCCCCCCCCC(=O)O` [PA, palmitic acid] gave a Kd (PRDX1 [1]) of 75.3 ± 4.5 µM.

`O=C(/C=C/c1ccc(O)c(O)c1)O[C@H](Cc1ccc(O)c(O)c1)C(=O)O` [RA, rosmarinic acid] was tested, and the Kd (PRDX1 [2]) was 0.3757 ± 0.0025 µM.

B1: PRDX1^C52SC83S (aa 1-175) (enzyme, human, UniProt Q06830 1-175, looked up)
chain: MSSGNAKIGHPAPNFKATAVMPDGQFKDISLSDYKGKYVVFFFYPLDFTFVSPTEIIAFSDRAEEFKKLNCQVIGASVDSHFSHLAWVNTPKKQGGLGPMNIPLVSDPKRTIAQDYGVLKADEGISFRGLFIIDDKGILRQITVNDLPVGRSVDETLRLVQAFQFTDKHGEVCPA
B1: binds (crystal structure).
